# Literature values as cited in patent publication US11813363B1, “Concentrated nutritional or supplemental compound for intestinal, gut-brain axis and neurobiological homeostasis through calibrated absorption including neurotransmitter or any equilibrating compound release to treat or mitigate disease and co-morbidities, particularly obesity and malnourishment” (priority 2022, dated 2023).
# Settings: oral ingestion; reddish-orange color of urine
smiles,measurement,value
"Cl.Nc1ccc(/N=N/c2ccccc2)c(N)n1 [phenazopyridine, phenazopyridine hydrochloride]",time to visible urine color change after ingestion (earliest),≥ 20 min
same,time to visible urine color change after ingestion (latest),within one hour
